Experimental findings from ChEMBL document CHEMBL5042522, “One- and Two-Photon Uncaging of Carbon Monoxide (CO) with Real-Time Monitoring: On-Demand Carbazole-Based Dual CO-Releasing Platform to Test over Single and Combinatorial Approaches for the Efficient Regression of Orthotopic Murine Melanoma In Vivo” (J Med Chem, 2022) are described below.

Series [1] is described as follows: Photorelease ability in PBS buffer at pH 7.4 assessed as compound decomposition at 100 uM irradiated with >= 365 nm Hg lamp upto 30 mins by UV absorption spectroscopy. Format: physicochemical. Conditions: read-out: Drug degradation; call rule not given here.
The test system of series [2] is B16-F10. Briefly: Cytotoxicity against mouse B16-F10 cells assessed as cell viability at 10 uM irradiated with >= 365 nm Hg lamp for 5 mins after 6 hrs post-treatment and further incubated for 72 hrs by MTT assay. Format: functional. Conditions: B16-F10, light or radiation study, time 78 hrs, read-out: Activity. (In general: Tetrazolium assays rely on reduction of a dye to a coloured formazan, in cell work by metabolically active cells.)

Series [3] in a line: Stability of compound in PBS buffer at pH 7.4 at 100 uM incubated for 72 hrs under dark condition by RP-HPLC analysis. It is filed as physicochemical. Conditions: read-out: Stability.
Series [4] in a line: Stability of compound in PBS buffer at pH 7.4 at 100 uM incubated for 72 hrs under dark condition in presence of cysteine by Reverse-phase HPLC analysis. Format: physicochemical. To be noted: read-out: Stability.
The nature of series [5]: Photorelease ability in CDCl3 assessed as compound decomposition by measuring (2,2'-(9-ethy1-9H-carbazole-3,6-chyl)bis(2-oxoacetaldehyde) photoproduct formation at 100 uM measured after 20 mins of irradiation with >= 365 nm Hg lamp by 1H-NMR spectroscopy. Format: physicochemical.
Series [6] in a line: Photorelease ability in PBS buffer at pH 7.4 assessed as compound decomposition by measuring 1-(9-ethyl-9H-carbazol-3-y1)-2,2-dihydroxyethan-l-one photoproduct formation at 100 uM measured upto 5.5 mins of irradiation with >= 365 nm Hg lamp by RP-HPLC analysis followed by 1H-NMR analysis. It is filed as physicochemical. To be noted: pH 7.4, 5.5 min.
A short description of series [7]: Photorelease activity in PBS buffer at pH 7.4 assessed as release of CO using 3',6'-Bis(allyloxy)-3H-spiro(isobenzofuran-1,9'-xanthen)-3-one fluorescent probe at 500 uM irradiated with >= 365 nm Hg lamp for 30 mins in presence of PdCl2 by absorption spectroscopy. Format: physicochemical. To be noted: pH 7.4, 0.5 h.
Series [8] in a line: Drug uptake in mouse B16-F10 cells assessed as drug internalization by measuring blue fluorescence at 20 uM incubated for 4 hrs followed by propidium iodide staining based confocal laser scanning microscopy. It is filed as ADME, cell-based. To be noted: b16-f10, 4 h.
In series [9] the test system is B16-F10. Briefly: Photorelease activity in mouse B16-F10 cells assessed as uncaging of active molecules of drug by measuring green fluorescence at 20 uM incubated for 4 hrs irradiated with >= 365 nm Hg lamp for 5 mins and further incubated for 4 hrs by propidium iodide staining based confocal laser scanning microscopy. To be noted: time 8.0 hrs. Format: functional, cell-based.

The subject of series [10] is B16-F10. Nature of the series: Cytotoxicity against mouse B16-F10 cells assessed as cell viability at 1.25 to 10 uM irradiated with >= 365 nm Hg lamp for 5 mins after 6 hrs post-treatment and further incubated for 72 hrs by MTT assay. Conditions: dose 1.25-10 µM, time 78 hrs. It is filed as functional.
Series [11] is described as follows: Photolysis of compound in PBS buffer at pH 7.4 assessed as compound decomposition by measuring final photoproduct formation at 0.1 mM irradiated with >= 365 nm for 20 mins by RP-HPLC analysis. It is filed as physicochemical. To be noted: pH 7.4, 20 min, 100 µM.
Series [12] can be described thus: Photorelease ability in PBS buffer at pH 7.4 assessed as fast uncaging of CO at 100 uM irradiated with >= 365 nm Hg lamp for 60 mins by RP-HPLC analysis. It is filed as physicochemical. To be noted: pH 7.4, 1 h.
A short description of series [13]: Photolysis of compound in PBS buffer at pH 7.4 assessed as compound decomposition by measuring final photoproduct formation at 0.1 mM irradiated with >= 365 nm for 60 mins by RP-HPLC analysis. To be noted: pH 7.4, 1 h, 100 µM. Format: physicochemical.

Molecules are shown by their SMILES.

As for `CCn1c2ccc(C(=O)C(O)O)cc2c2cc(-c3coc(=O)o3)ccc21`, the degraded at 0.5 h, 100 µM in series [1] was found to be 100%.

Turning to `O=C(O)CCCc1ccc(N(CCCl)CCCl)cc1` [CHLORAMBUCIL], in series [2], the viability at 10 µM worked out at 80%.

In the case of `CCn1c2ccccc2c2cc(-c3coc(=O)o3)ccc21`, the remaining at 72 h, 100 µM in series [3] amounted to 96%; in series [4] it was 87%. Besides, the Drug degradation worked out at 100% in [5], 100% in series [6] and 93% in series [11]. The Drug metabolism amounted to 5.9 ppm in [7] and 100% in series [9]. Besides, the Drug uptake result in [8] is “Active”. In addition, in series [10], the Activity was 70%.

For the compound `CCn1c2ccc(C(=O)COC(=O)CCCc3ccc(N(CCCl)CCCl)cc3)cc2c2cc(-c3coc(=O)o3)ccc21`, the results for the remaining at 72 h, 100 µM in series [3] and in [4] were 96% and 93%, respectively. The results for the Drug metabolism entry in [12], in [7] and in series [9] were “Active”, 5.7 ppm and 100%, respectively. In addition, the Drug uptake result in series [8] is on record as “Active”. Also, the Activity in series [10] was found to be 35%. The Drug degradation in series [13] was 88%.
